Earlier results on 1 molecule are cited in patent US20220401441A1, “PHARMACEUTICAL COMPOSITION COMPRISING SELEXIPAG” (ACTELION PHARMACEUTICALS LTD, priority 2019, published 2022).

This data set concerns patients with pulmonary arterial hypertension. The settings on record: selexipag versus placebo.

Take `CC(C)N(CCCCOCC(=O)NS(C)(=O)=O)c1cnc(-c2ccccc2)c(-c2ccccc2)n1` [selexipag, 2-{4-[N-(5,6-diphenylpyrazin-2-yl)-N-isopropylamino]butyloxy}-N-(methylsulfonyl)acetamide]: the “risk of the primary composite end point of death or a complication related to pulmonary arterial hypertension” value is recorded as “significantly lower”.
